Experiment [1] deals with T1, Death-associated protein kinase 1 (DAPK1) (Homo sapiens, UniProt P53355).
T1 construct: catalytic domain, residues 1–285
Briefly: fluorescent probe saturation binding (BC50), competed by RSV.

Experiment [2] addresses T1, Death-associated protein kinase 1 (DAPK1). Kind of experiment: malachite green intrinsic ATPase assay at […] ATP. It is filed as biochemical.

What is called Kd is a measure of binding affinity in units of concentration. Low values mean tighter binding, high ones weaker binding.

Molecules are shown by their SMILES.

T1 sequence (P53355 1-285): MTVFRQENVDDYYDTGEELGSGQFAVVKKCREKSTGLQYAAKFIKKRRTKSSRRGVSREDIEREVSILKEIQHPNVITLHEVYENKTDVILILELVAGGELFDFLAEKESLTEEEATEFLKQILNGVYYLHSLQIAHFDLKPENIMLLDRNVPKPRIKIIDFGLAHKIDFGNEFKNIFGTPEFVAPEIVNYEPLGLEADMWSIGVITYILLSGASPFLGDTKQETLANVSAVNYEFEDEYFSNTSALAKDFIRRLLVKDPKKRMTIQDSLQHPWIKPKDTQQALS

In experiment [1], `O=S(=O)(O)c1cccc2cccc(Nc3ccccc3)c12` [ANS, 8-anilinonaphthalene-1-sulfonic acid] displayed a Kd of 7.3 µM. This counts as single-digit micromolar.

On to `O=c1c(O)c(-c2ccc(O)cc2)oc2cc(O)cc(O)c12` [KAE, kaempferol], for which, in experiment [2], the “malachite green intrinsic ATPase assay at 30 μM ATP” value is given as “The inhibitory potency of KAE was higher than that of API”.

The values are drawn from article PMC7792996, “Crystal structure of death-associated protein kinase 1 in complex with the dietary compound resveratrol” (IUCrJ, 2021).
